Patent US20250073292A1, “PELARGONIUM GRAVEOLENS EXTRACT FOR THE TREATMENT OF TRAUMATIC BRAIN INJURIES” (priority 2021, published 2025)

Columns and labels:
[1] = system: mice subjected to closed head injury (CHI); assay: Barnes maze (BM) acquisition, recall and exploration strategies after CHI; assay type: in vivo; conditions: 2 weeks after the trauma, 3 days after the last treatment; 125 mg/kg or 50 mg/kg (both doses), gavage, 9 treatments
Protocol: At 1 h after CHI, the NSS is evaluated.
• The BM test is based on the instinct of the mouse to hide when exposed to environmental disturbances and is used to test spatial learning and memory. The maze consists of an elevated circular platform with holes in the perimeter and a small dark hidden goal box. Bright light and aversive noise (85 dB) force the animals to escape from the open platform surface to find the hole under which the dark chamber (21×22×21 cm), “target goal box,” is located. Visual cues of different colors and shapes are placed around the room. The mouse was placed under a cylindrical black start chamber at the center of the maze. […] For the probe trial, the latency to reaching the escape box first are recorded. • The Barnes maze test was performed: • 1) Between days 14-17 (2 weeks) plus a recall test on days 18 and 25 after injury, for a total round of 6. • 2) Between days 54-57 (2 months) plus a recall test on days 58 and 65 after injury for a total round of 2. • 3) Between days 183-186 (6 months) plus a recall test on days 187 and 194 after injury for a total round of 2. • 4) Between days 277-280 (9 months) plus a recall test on days 281 and 288 after injury for a total round of 1. • The captured videos were analyzed with Ethovision XP10 software (Noldus, The Netherlands) for later evaluation of the strategies used to locate the target box. […]

acetyl choline esterase = acetyl choline esterase (Homo sapiens, UniProt P22303); conditions: WO 2013/168090 [10]; cited from earlier work
Chain of acetyl choline esterase (P22303 32-614): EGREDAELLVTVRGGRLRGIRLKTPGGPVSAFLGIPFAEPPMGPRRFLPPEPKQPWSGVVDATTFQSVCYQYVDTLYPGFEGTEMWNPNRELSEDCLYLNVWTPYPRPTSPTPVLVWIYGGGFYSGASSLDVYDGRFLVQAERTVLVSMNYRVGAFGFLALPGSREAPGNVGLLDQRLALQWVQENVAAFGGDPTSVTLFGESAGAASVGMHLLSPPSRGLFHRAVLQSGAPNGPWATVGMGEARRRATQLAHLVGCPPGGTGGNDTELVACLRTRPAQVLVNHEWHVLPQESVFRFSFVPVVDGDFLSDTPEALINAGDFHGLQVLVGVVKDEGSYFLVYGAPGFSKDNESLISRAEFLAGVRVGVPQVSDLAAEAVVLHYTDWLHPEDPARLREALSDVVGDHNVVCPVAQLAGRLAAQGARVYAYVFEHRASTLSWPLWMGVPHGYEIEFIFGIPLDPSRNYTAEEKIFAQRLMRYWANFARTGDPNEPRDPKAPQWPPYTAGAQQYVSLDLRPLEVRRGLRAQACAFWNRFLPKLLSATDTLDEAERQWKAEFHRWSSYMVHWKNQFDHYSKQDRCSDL

SMILES | Barnes maze acquisition, learning curve [1] | Activity of the enzyme acetyl choline esterase in vitro (acetyl choline esterase)
CC(C)=CCCC(C)CCO (centres unmarked) [Citronellol, citronellol] | A significant improvement in the learning curve | 
CC(C)=CCC[C@H](C)CCO [(S) (−) citronellol] |  | inhibits
